From PubChem BioAssay (NCI)
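Growth conditions: 96-well plates. Treatment: test compound, 48 hours, 5 concentrations. Analysis: linear interpolation between bracketing concentrations; unreached endpoints set to highest concentration. TGI: total growth inhibition.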

Columns and labels:
Assay in all cases: NCI tumour cell line growth inhibition, 48 h
M14 melanoma = tested on: M14 melanoma
SNB-19 CNS = tested on: SNB-19 CNS
HT29 colon = tested on: HT29 colon
BT-549 breast = tested on: BT-549 breast
NCI-H460 lung = tested on: NCI-H460 lung
SR leukemia = tested on: SR leukemia
SNB-75 CNS = tested on: SNB-75 CNS
ACHN renal = tested on: ACHN renal
EKVX NSCLC = tested on: EKVX NSCLC
HCT-116 colon = tested on: HCT-116 colon
UACC-257 melanoma = tested on: UACC-257 melanoma
SW-620 colon = tested on: SW-620 colon
MOLT-4 leukemia = tested on: MOLT-4 leukemia
A549 NSCLC = tested on: A549 NSCLC
TK-10 renal = tested on: TK-10 renal
SK-MEL-5 melanoma = tested on: SK-MEL-5 melanoma
U251 CNS = tested on: U251 CNS
COLO 205 colon = tested on: COLO 205 colon
IGROV1 ovarian = tested on: IGROV1 ovarian
SK-MEL-2 melanoma = tested on: SK-MEL-2 melanoma
NCI-H23 lung = tested on: NCI-H23 lung
OVCAR-5 ovarian = tested on: OVCAR-5 ovarian
786-0 renal = tested on: 786-0 renal
OVCAR-8 ovarian = tested on: OVCAR-8 ovarian
MDA-N = tested on: MDA-N
HOP-62 NSCLC = tested on: HOP-62 NSCLC
NCI-H226 lung = tested on: NCI-H226 lung
SN12C renal = tested on: SN12C renal
A498 renal = tested on: A498 renal
K-562 leukemia = tested on: K-562 leukemia
T-47D breast = tested on: T-47D breast
HOP-92 NSCLC = tested on: HOP-92 NSCLC
UO-31 renal = tested on: UO-31 renal
KM12 colon = tested on: KM12 colon
RXF 393 renal = tested on: RXF 393 renal
HL-60(TB) leukemia = tested on: HL-60(TB) leukemia
SK-MEL-28 melanoma = tested on: SK-MEL-28 melanoma
RPMI-8226 leukemia = tested on: RPMI-8226 leukemia
HS 578T breast = tested on: HS 578T breast
UACC-62 melanoma = tested on: UACC-62 melanoma
HCC-2998 colon = tested on: HCC-2998 colon
CCRF-CEM leukemia = tested on: CCRF-CEM leukemia
PC-3 prostate = tested on: PC-3 prostate
MCF7 breast = tested on: MCF7 breast
HCT-15 colon = tested on: HCT-15 colon
MDA-MB-231 breast = tested on: MDA-MB-231 breast
MALME-3M melanoma = tested on: MALME-3M melanoma
NCI/ADR-RES ovarian = tested on: NCI/ADR-RES ovarian
LOX IMVI melanoma = tested on: LOX IMVI melanoma
CAKI-1 renal = tested on: CAKI-1 renal
DU-145 prostate = tested on: DU-145 prostate
NCI-H522 lung = tested on: NCI-H522 lung
OVCAR-4 ovarian = tested on: OVCAR-4 ovarian
SF-539 CNS = tested on: SF-539 CNS
SF-268 CNS = tested on: SF-268 CNS
SK-OV-3 ovarian = tested on: SK-OV-3 ovarian
SF-295 CNS = tested on: SF-295 CNS
MDA-MB-435 = tested on: MDA-MB-435
OVCAR-3 ovarian = tested on: OVCAR-3 ovarian

Measured: TGI

NC(CCCCNC(=O)OCc1ccccc1)C(=O)NC(CCCCNC(=O)OCc1ccccc1)C(=O)ON1C(=O)CCC1=O (configuration not stated)
not listed: NCI/ADR-RES ovarian | LOX IMVI melanoma | CAKI-1 renal | DU-145 prostate | NCI-H522 lung | OVCAR-4 ovarian | SF-539 CNS | SF-268 CNS | SK-OV-3 ovarian | SF-295 CNS | MDA-MB-435 | OVCAR-3 ovarian
> 100 µM: all other assays above

Cc1nn(C(=O)c2ccccc2O)c2c1C(c1ccccc1)SC(N)=N2 (configuration not stated)
8.15 µM: CCRF-CEM leukemia
6.49 µM: SR leukemia
7.22 µM: OVCAR-3 ovarian
0.621 µM: SF-539 CNS
3.58 µM: HL-60(TB) leukemia
4.76 µM: K-562 leukemia
9.73 µM: UACC-62 melanoma
6.05 µM: RPMI-8226 leukemia
6.96 µM: IGROV1 ovarian
7.38 µM: NCI-H226 lung
not listed: SNB-75 CNS | A498 renal | HOP-92 NSCLC | UO-31 renal
> 10 µM: all other assays above
